Measured values published in patent publication US8818734B1, “Peptide ligands for sperm DNA fragmentation assay” (priority 2011, dated 2014).

Tests used:
Assay type in all cases: cell-based
spermatozoa = assay: Access of TAT-modified DW1 to the cell interior; settings: DW1 modified to include TAT peptide YGRKKRRQRRRG
Source text: However, it is possible that different TAT configurations or the use of an alternative protein transduction domain might allow penetration into the cell interior. […] It is still possible that the peptide could be used to choose spermatozoa for fertilization using ICSI following removal of membranes using detergent. Previous studies have shown that sperm treated in this way remain fertilizations competent (Kasai et al., 1999). […] Electroporation is known not to inhibit sperm viability and ICSI procedures.

human spermatozoa [1] = assay: Induction of double-strand DNA damage with Bleomycin: DW1 staining of ethanol-fixed slides, SCDt, neutral comet assay; settings: 2 and 4 mg/ml Bleomycin, 3 h, 37° C., p<0.05
Method: Five human sperm samples were washed in PBS (220 g, 10 min), diluted to a concentration of 10×10^6 spermatozoa/ml in PBS (Fischer Scientific International, Pittsburgh, Pa., USA) and divided into three aliquots of 200 μl each, allowing a control group to be compared with the treated cells. To induce double-strand DNA damage, spermatozoa were incubated with 2 and 4 mg/ml of Bleomycin (Sigma, St Louis, Mo., USA) for 3 h at 37° C.
(§1) Control, H2O2 (0.03% and 0.3%) and Bleomycin (2 and 4 mg/ml)-treated sperm samples were used for this purpose. Ten fields per sample were captured as described above in the Fluorescence microscopy evaluation and image capture section using a fixed exposure time. A total of 300 sperm cells per slide were analysed.
A Mann-Whitney U test was used to detect significant differences in the frequencies of SDF calculated by SCDt and neutral comet assay between the control and each one of the treatments, 2 mg/ml and 4 mg/ml of bleomycin.

human spermatozoa [2] = assay: Induction of single-strand DNA damage with H2O2: DW1 staining of ethanol-fixed slides, SCDt, alkaline comet assay; settings: 0.03 and 0.3% H2O2, 30 min, p<0.05
Method: Five human sperm samples were washed in PBS (220 g, 10 min), diluted to a concentration of 10×10^6 spermatozoa/ml in PBS (Fischer Scientific International, Pittsburgh, Pa., USA) and divided into three aliquots of 200 μl each, allowing a control group to be compared with the treated cells. To induce single-strand DNA damage (Yamamoto, 1969), spermatozoa were incubated with 0.03 and 0.3% H2O2 (Sigma, St Louis, Mo., USA) for 30 min at room temperature.
as §1
One way-ANOVA and Dunnett's Test for multiple comparisons with a single control were used to detect significant differences in the frequencies of SDF calculated by SCDt and alkaline comet assay between the control and each one of the treatments, 0.03% and 0.3% H2O2.

Compound: DW1 (SEQ ID NO:1) to include a TAT peptide: DW1 modified to include a TAT peptide (YGRKKRRQRRRG), a transduction sequence (GSRAHSSHLKSKKGQSTSRHKKYGRKKRRQRRRG; listed as Homo sapiens)
- access to the cell interior (spermatozoa): failed to improve access to the cell interior

Compound: Bleomycin
- frequency of sperm cells with fragmented DNA by SCDt (SCDt-SDF) and neutral comet assay (dsSDF) (human spermatozoa [1]): significantly increased

Compound: OO [H2O2, Hydrogen Peroxide]
- frequency of sperm cells with fragmented DNA by SCDt (SCDt-SDF) and alkaline comet assay (ssSDF) (human spermatozoa [2]): significant increase
